Where a name gives a salt, the structure may show the parent alone.
Target: Autotaxin (Homo sapiens (Human), UniProt Q13822)
Assay: Autotaxin LPC Cascade Assay
Format: biochemical
Details: Autotaxin 5 nM, LPC 100 μM, choline oxidase/HRP/Ampliflu Red fluorescence read-out, 2% DMSO, RT; read-out: IC50 ATX Activity
In short: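 Choline liberated from LPC by autotaxin during 1 h, after a 10-min RT compound preincubation, was converted through choline oxidase/HRP to a fluorescent Ampliflu Red product.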

Row | Structure (SMILES) | IC50 [nM]
1 | CCN1C(=O)N(C)C(=O)C12CCN(C(=O)[C@H](NC(=O)c1cc(C(F)(F)F)ccc1F)C(C)C)CC2 [Example 123, (R)—N-(1-(1-Ethyl-3-methyl-2,4-dioxo-1,3,8-triazaspiro[4.5]decan-8-yl)-3-methyl-1-oxobutan-2-yl)-2-fluoro-5-(trifluoromethyl)benzamide] | ≥ 1000
2 | CC(C)CCN1C(=O)N(C)C(=O)C12CCN(C(=O)[C@H](NC(=O)c1cc(C(F)(F)F)ccc1F)C(C)C)CC2 [Example 124, (R)-2-Fluoro-N-(1-(1-isopentyl-3-methyl-2,4-dioxo-1,3,8-triazaspiro[4.5]decan-8-yl)-3-methyl-1-oxobutan-2-yl)-5-(trifluoromethyl)benzamide] | < 500
3 | CC(C)[C@@H](NC(=O)c1cc(C(F)(F)F)ccc1F)C(=O)N1CCC2(CC1)C(=O)N(C)C(=O)N2C1CCCC1 [Example 125, (R)—N-(1-(1-Cyclopentyl-3-methyl-2,4-dioxo-1,3,8-triazaspiro[4.5]decan-8-yl)-3-methyl-1-oxobutan-2-yl)-2-fluoro-5-(trifluoromethyl)benzamide] | < 500
4 | CC(C)[C@@H](NC(=O)c1cc(C(F)(F)F)ccc1F)C(=O)N1CCC2(CC1)NC(=O)N(C)C2=O [Example 126, (R)-2-Fluoro-N-(3-methyl-1-(3-methyl-2,4-dioxo-1,3,8-triazaspiro[4.5]decan-8-yl)-1-oxobutan-2-yl)-5-(trifluoromethyl)benzamide] | ≥ 1000
5 | COC(=O)Nc1ccc(N2C(=O)N(C)C(=O)C23CCN(C(=O)[C@H](NC(=O)c2cc(C(F)(F)F)ccc2F)C(C)C)CC3)cc1 [Example 127, (R)-Methyl-4-(8-(2-(2-fluoro-5-(trifluoromethyl)benzamido)-3-methylbutanoyl)-3-methyl-2,4-dioxo-1,3,8-triazaspiro[4.5]decan-1-yl)phenylcarbamate] | 500 to 1000
6 | CC(C)[C@@H](NC(=O)c1cc(C(F)(F)F)ccc1F)C(=O)N1CCC2(CC1)C(=O)N(C)C(=O)N2c1ccc(NC(=O)C2CC2)cc1 [Example 128, (R)—N-(1-(1-(4-(Cyclopropanecarboxamido)phenyl)-3-methyl-2,4-dioxo-1,3,8-triazaspiro[4.5]decan-8-yl)-3-methyl-1-oxobutan-2-yl)-2-fluoro-5-(trifluoromethyl)benzamide] | 500 to 1000
7 | Cc1cccc(C(=O)N[C@H](C(=O)N2CCC3(CC2)C(=O)N(C)CN3c2ccccc2)C2CCOCC2)c1 [Example 130, (S)-3-Methyl-N-(2-(3-methyl-4-oxo-1-phenyl-1,3,8-triazaspiro[4.5]decan-8-yl)-2-oxo-1-(tetrahydro-2H-pyran-4-yl)ethyl)benzamide] | ≥ 1000
8 | Cc1cccc(C(=O)N[C@@H](C(=O)N2CCC3(CC2)C(=O)N(C)CN3c2ccccc2)C2CCCCC2)n1 [Example 131, (R)—N-(1-Cyclohexyl-2-(3-methyl-4-oxo-1-phenyl-1,3,8-triazaspiro[4.5]decan-8-yl)-2-oxoethyl)-6-methylpicolinamide trifluoroacetic Acid Salt] | < 500
9 | CCc1ccc(F)c(C(=O)N[C@@H](C(=O)N2CCC3(CC2)C(=O)N(C)CN3c2ccccc2)[C@H](C)OC)c1 [Example 133, 5-Ethyl-2-fluoro-N-((2R,3S)-3-methoxy-1-(3-methyl-4-oxo-1-phenyl-1,3,8-triazaspiro[4.5]decane-8-yl)-1-oxobutan-2-yl)benzamide] | < 500
10 | CO[C@@H](C)[C@@H](NC(=O)c1cccc(C)c1)C(=O)N1CCC2(CC1)C(=O)N(C)CN2c1ccccc1 [Example 134, N-((2R,3S)-3-Methoxy-1-(3-methyl-4-oxo-1-phenyl-1,3,8-triazaspiro[4.5]decan-8-yl)-1-oxobutan-2-yl)-3-methylbenzamide] | < 500
11 | CCc1cccc(C(=O)N[C@@H](C(=O)N2CCC3(CC2)C(=O)N(C)CN3c2ccccc2)[C@H](C)OC)c1 [Example 135, 3-Ethyl-N-((2R,3S)-3-methoxy-1-(3-methyl-4-oxo-1-phenyl-1,3,8-triazaspiro[4.5]decan-8-yl)-1-oxobutan-2-yl)benzamide] | < 500
12 | CCc1cc(F)cc(C(=O)N[C@@H](C(=O)N2CCC3(CC2)C(=O)N(C)CN3c2ccccc2)[C@H](C)OC)c1 [Example 136, 3-Ethyl-5-fluoro-N-((2R,3S)-3-methoxy-1-(3-methyl-4-oxo-1-phenyl-1,3,8-triazaspiro[4.5]decan-8-yl)-1-oxobutan-2-yl)benzamide] | < 500
13 | Cc1cc(C(=O)N[C@@H](C(=O)N2CCC3(CC2)C(=O)N(C)CN3c2ccccc2)C(C)C)ccn1 [Example 137, (R)-2-Methyl-N-(3-methyl-1-(3-methyl-4-oxo-1-phenyl-1,3,8-triazaspiro[4.5]decan-8-yl)-1-oxobutan-2-yl)isonicotinamide] | ≥ 1000
14 | CCc1cccc(C(=O)N[C@@H](C(=O)N2CCC3(CC2)C(=O)N(C)CN3c2ccccc2)C(C)C)c1 [Example 138, (R)-3-Ethyl-N-(3-methyl-1-(3-methyl-4-oxo-1-phenyl-1,3,8-triazaspiro[4.5]decan-8-yl)-1-oxobutan-2-yl)benzamide] | < 500
15 | Cc1cc(C(=O)N[C@@H](C(=O)N2CCC3(CC2)C(=O)N(C)CN3c2ccccc2)C(C)C)ccc1F [Example 139, (R)-4-Fluoro-3-methyl-N-(3-methyl-1-(3-methyl-4-oxo-1-phenyl-1,3,8-triazaspiro[4.5]decan-8-yl)-1-oxobutan-2-yl)benzamide] | < 500
16 | Cc1cc(F)cc(C(=O)N[C@@H](C(=O)N2CCC3(CC2)C(=O)N(C)CN3c2ccccc2)C(C)C)c1 [Example 140, (R)-3-Fluoro-5-methyl-N-(3-methyl-1-(3-methyl-4-oxo-1-phenyl-1,3,8-triazaspiro[4.5]decan-8-yl)-1-oxobutan-2-yl)benzamide] | < 500
17 | Cc1ccc(F)c(C(=O)N[C@@H](C(=O)N2CCC3(CC2)C(=O)N(C)CN3c2ccccc2)C(C)C)c1 [Example 141, (R)-2-Fluoro-5-methyl-N-(3-methyl-1-(3-methyl-4-oxo-1-phenyl-1,3,8-triazaspiro[4.5]decan-8-yl)-1-oxobutan-2-yl)benzamide] | < 500
18 | CC(C)[C@@H](NC(=O)c1cccc(C2CC2)c1)C(=O)N1CCC2(CC1)C(=O)N(C)CN2c1ccccc1 [Example 142, (R)-3-Cyclopropyl-N-(3-methyl-1-(3-methyl-4-oxo-1-phenyl-1,3,8-triazaspiro[4.5]decan-8-yl)-1-oxobutan-2-yl)benzamide] | < 500
19 | CCc1ccc(F)c(C(=O)N[C@@H](C(=O)N2CCC3(CC2)C(=O)N(C)CN3c2ccccc2)C(C)C)c1 [Example 144, (R)-5-Ethyl-2-fluoro-N-(3-methyl-1-(3-methyl-4-oxo-1-phenyl-1,3,8-triazaspiro[4.5]decan-8-yl)-1-oxobutan-2-yl)benzamide] | < 500
20 | Cc1cccc(C(=O)N[C@@H](C(=O)N2CCC3(CC2)C(=O)N(C)CN3c2ccc(C(N)=O)cc2)C(C)C)c1F [Example 145, (R)—N-(1-(1-(4-Carbamoylphenyl)-3-methyl-4-oxo-1,3,8-triazaspiro[4.5]decan-8-yl)-3-methyl-1-oxobutan-2-yl)-2-fluoro-3-methylbenzamide] | 500 to 1000
21 | Cc1cccc(C(=O)N[C@@H](C(=O)N2CCC3(CC2)C(=O)N(C)CN3c2cccc(C(N)=O)c2)C(C)C)c1F [Example 146, (R)—N-(1-(1-(3-Carbamoylphenyl)-3-methyl-4-oxo-1,3,8-triazaspiro[4.5]decan-8-yl)-3-methyl-1-oxobutan-2-yl)-2-fluoro-3-methylbenzamide] | ≥ 1000
22 | Cc1cccc(C(=O)N[C@@H](C(=O)N2CCC3(CC2)C(=O)N(C)CN3c2ccc(B(O)O)cc2)C(C)C)c1F [Example 147, (R)-4-(8-(2-(2-Fluoro-3-methylbenzamido)-3-methylbutanoyl)-3-methyl-4-oxo-1,3,8-triazaspiro[4.5]decan-1-yl)phenylboronic Acid] | < 500
23 | Cc1cccc(C(=O)N[C@@H](C(=O)N2CCC3(CC2)C(=O)N(C)CN3c2cccc(B(O)O)c2)C(C)C)c1F [Example 148, (R)-3-(8-(2-(2-Fluoro-3-methylbenzamido)-3-methylbutanoyl)-3-methyl-4-oxo-1,3,8-triazaspiro[4.5]decan-1-yl)phenylboronic Acid] | ≥ 1000
24 | CC(C)[C@@H](NC(=O)c1cc(C(F)(F)F)ccc1F)C(=O)N1CCC2(CC1)C(=O)N(C)CN2c1ccc(C(=O)O)cc1 [Example 149, (R)-4-(8-(2-(2-Fluoro-5-(trifluoromethyl)benzamido)-3-methylbutanoyl)-3-methyl-4-oxo-1,3,8-triazaspiro[4.5]decan-1-yl)benzoic Acid] | < 500
25 | Cc1cccc(C(=O)N[C@@H](C(=O)N2CCC3(CC2)C(=O)N(C)CN3c2ccc(C(=O)O)cc2)C(C)C)c1F [Example 150, (R)-4-(8-(2-(2-Fluoro-3-methylbenzamido)-3-methylbutanoyl)-3-methyl-4-oxo-1,3,8-triazaspiro[4.5]decan-1-yl)benzoic Acid] | < 500
26 | COc1cc(N2CN(C)C(=O)C23CCN(C(=O)[C@H](NC(=O)c2cc(C(F)(F)F)ccc2F)C(C)C)CC3)ccc1C(=O)O [Example 151] | < 500
27 | CCc1ccc(F)c(C(=O)N[C@@H](C(=O)N2CCC3(CC2)C(=O)N(C)CN3c2ccc(C(=O)O)cc2)C(C)C)c1 [Example 152, (R)-4-(8-(2-(5-Ethyl-2-fluorobenzamido)-3-methylbutanoyl)-3-methyl-4-oxo-1,3,8-triazaspiro[4.5]decan-1-yl)benzoic Acid] | < 500
28 | CC(C)[C@@H](NC(=O)c1cc(C2CC2)ccc1F)C(=O)N1CCC2(CC1)C(=O)N(C)CN2c1ccc(C(=O)O)cc1 [Example 153, (R)-4-(8-(2-(5-Cyclopropyl-2-fluorobenzamido)-3-methylbutanoyl)-3-methyl-4-oxo-1,3,8-triazaspiro[4.5]decan-1-yl)benzoic Acid] | < 500
29 | CC(C)[C@@H](NC(=O)c1cc(C(F)(F)F)ccc1F)C(=O)N1CCC2(CC1)C(=O)N(C)CN2c1ccc(C(=O)O)c(Cl)c1 [Example 154, (R)-2-Chloro-4-(8-(2-(2-fluoro-5-(trifluoromethyl)benzamido)-3-methylbutanoyl)-3-methyl-4-oxo-1,3,8-triazaspiro[4.5]decan-1-yl)benzoic Acid] | < 500
